Paper PMC4512978, “Synthesis and evaluation in rats of homologous series of [^18F]-labeled dopamine D2/3 receptor agonists based on the 2-aminomethylchroman scaffold as potential PET tracers” (EJNMMI Research, 2015)

Tested on: D2/3R
Assay: Kinetic analysis of PET data (1TCM, 2TCM, Logan, SRTM);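 on 2TCM BPND change relative to control: Raclopride 1 mg/kg intravenous pretreatment versus saline controls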;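 on SRTM BPND change relative to control: Raclopride 1 mg/kg intravenous pretreatment versus saline controls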
Assay type: in vivo, Sprague-Dawley rats
Parameters: key to SRTM BPND / 1TCM BPND / 2TCM BPND (VT-based): BPND = VT(target)/VT(cerebellum) − 1 (or SRTM, cerebellum reference); SRTM BPND change relative to control / 1TCM BPND change relative to control / 2TCM BPND change relative to control / Logan BPND change relative to control: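 Raclopride 1 mg/kg intravenous pretreatment versus saline controls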; 1TCM VT / 2TCM VT: unit not given here
Procedure: Kinetic analysis is described using the nomenclature proposed by Innis et al.. ROI TACs of [^18F]FEt-AMC13 were analyzed with one-tissue and two-tissue compartmental models of reversible binding (1TCM and 2TCM, respectively) to obtain individual rate constants. From these, the regional distribution volumes (VT) were calculated and compared to those obtained with Logan graphical analysis. Binding potentials (BPND) were calculated from the distribution ratios as VT (target) / VT (cerebellum) – 1, or estimated with the simplified reference tissue model (SRTM) using the cerebellum as reference region.
Metabolite-corrected plasma-derived arterial input function and whole blood time-activity curve were used for Logan, 1TCM, and 2TCM analyses. Fractional cerebral blood volume was set to 3.6 % [27]. For one rat in the raclopride-treated group, no input curves could be obtained; therefore, its PET data were only analyzed with SRTM.
Degree of D2/3R-specific binding of the tracers was characterized by BPND (as given above) or the specific binding ratio (SBR) given as target region activity/cerebellar activity - 1. Both were calculated under control conditions and in response to the raclopride challenge.

[1] = Pituitary, raclopride, listed as [18F]FEt-AMC13
[2] = Striatum, raclopride, listed as [18F]FEt-AMC13
[3] = Thalamus, raclopride, listed as [18F]FEt-AMC13

1TCM VT (Striatum, control): 7.60±0.64
2TCM VT (Striatum, control): 7.90±0.84
Logan VT (Striatum, control): 7.72±0.84
1TCM VT (Striatum, raclopride): 6.69±0.41
2TCM VT (Striatum, raclopride): 6.97±0.39
Logan VT (Striatum, raclopride): 6.97±0.32
1TCM VT (Thalamus, control): 6.45±0.62
2TCM VT (Thalamus, control): 6.75±0.62
Logan VT (Thalamus, control): 6.64±0.61
1TCM VT (Thalamus, raclopride): 5.93±0.71
2TCM VT (Thalamus, raclopride): 6.44±0.60
Logan VT (Thalamus, raclopride): 6.40±0.40
SMILES: Oc1ccc2c(c1)O[C@@H](CNCc1ccc(OCC[18F])cc1)CC2 [[^18F]FEt-AMC13]
SRTM BPND (Pituitary, raclopride): 0.55 ± 0.53
SRTM BPND change relative to control (Pituitary, raclopride): −22%
2TCM BPND change relative to control [1]: -23%
SRTM BPND [1]: 0.55±0.53
SRTM BPND change relative to control [1]: –22%
1TCM BPND (Striatum, control): 0.63 ± 0.08
2TCM BPND (VT-based) (Striatum, control): 0.56 ± 0.05
Logan BPND (Striatum, control): 0.52 ± 0.01
SRTM BPND (Striatum, control): 0.51 ± 0.02
1TCM K1 (Striatum, control rat A): 0.45 ± 0.03 mL/g/min
1TCM k2 (Striatum, control rat A): 0.05 ± 0.01 min⁻¹
2TCM K1 (Striatum, control rat A): 1.77 ± 0.62 mL/g/min
2TCM k2 (Striatum, control rat A): 4.95 ± 3.00 min⁻¹
2TCM k3 (Striatum, control rat A): 1.34 ± 0.29 min⁻¹
2TCM k4 (Striatum, control rat A): 0.05 ± 0.01 min⁻¹
1TCM K1 (Striatum, control rat B): 0.49 ± 0.02 mL/g/min
1TCM k2 (Striatum, control rat B): 0.06 ± 0.01 min⁻¹
2TCM K1 (Striatum, control rat B): 0.63 ± 0.14 mL/g/min
2TCM k2 (Striatum, control rat B): 0.48 ± 0.68 min⁻¹
2TCM k3 (Striatum, control rat B): 0.81 ± 1.13 min⁻¹
2TCM k4 (Striatum, control rat B): 0.17 ± 0.07 min⁻¹
1TCM K1 (Striatum, control rat C): 0.47 ± 0.02 mL/g/min
1TCM k2 (Striatum, control rat C): 0.07 ± 0.004 min⁻¹
2TCM K1 (Striatum, control rat C): 0.98 ± 0.85 mL/g/min
2TCM k2 (Striatum, control rat C): 3.47 ± 8.55 min⁻¹
2TCM k3 (Striatum, control rat C): 2.81 ± 3.01 min⁻¹
2TCM k4 (Striatum, control rat C): 0.11 ± 0.08 min⁻¹
1TCM K1 (Striatum, control rat D): 0.51 ± 0.02 mL/g/min
1TCM k2 (Striatum, control rat D): 0.07 ± 0.01 min⁻¹
2TCM K1 (Striatum, control rat D): 8.06 ± 30.34 mL/g/min
2TCM k2 (Striatum, control rat D): 58.0 ± 203.8 min⁻¹
2TCM k3 (Striatum, control rat D): 3.54 ± 188.40 min⁻¹
2TCM k4 (Striatum, control rat D): 0.07 ± 263.98 min⁻¹
1TCM BPND (Striatum, raclopride): 0.51±0.06
1TCM BPND change relative to control (Striatum, raclopride): -18%
2TCM BPND (VT-based) (Striatum, raclopride): 0.41 ± 0.05
2TCM BPND change relative to control (Striatum, raclopride): −27%
Logan BPND (Striatum, raclopride): 0.40±0.04
Logan BPND change relative to control (Striatum, raclopride): -24%
SRTM BPND (Striatum, raclopride): 0.38 ± 0.05
SRTM BPND change relative to control (Striatum, raclopride): −26%
2TCM BPND (VT-based) [2]: 0.41±0.05
2TCM BPND change relative to control [2]: -27%
SRTM BPND [2]: 0.38±0.05
SRTM BPND change relative to control [2]: –26%
1TCM BPND (Thalamus, control): 0.38±0.06
2TCM BPND (VT-based) (Thalamus, control): 0.33 ± 0.02
Logan BPND (Thalamus, control): 0.31±0.02
SRTM BPND (Thalamus, control): 0.28 ± 0.06
1TCM K1 (Thalamus, control rat A): 0.44 ± 0.02 mL/g/min
1TCM k2 (Thalamus, control rat A): 0.06 ± 0.01 min⁻¹
2TCM K1 (Thalamus, control rat A): 14.0 ± 117.5 mL/g/min
2TCM k2 (Thalamus, control rat A): 104 ± 848 min⁻¹
2TCM k3 (Thalamus, control rat A): 3.05 ± 820.48 min⁻¹
2TCM k4 (Thalamus, control rat A): 0.05 ± 961.03 min⁻¹
1TCM K1 (Thalamus, control rat B): 0.65 ± 0.03 mL/g/min
1TCM k2 (Thalamus, control rat B): 0.10 ± 0.01 min⁻¹
2TCM K1 (Thalamus, control rat B): 0.88 ± 0.12 mL/g/min
2TCM k2 (Thalamus, control rat B): 0.58 ± 0.58 min⁻¹
2TCM k3 (Thalamus, control rat B): 0.67 ± 1.63 min⁻¹
2TCM k4 (Thalamus, control rat B): 0.19 ± 1.99 min⁻¹
1TCM K1 (Thalamus, control rat C): 0.55 ± 0.02 mL/g/min
1TCM k2 (Thalamus, control rat C): 0.09 ± 0.01 min⁻¹
2TCM K1 (Thalamus, control rat C): 0.71 ± 0.13 mL/g/min
2TCM k2 (Thalamus, control rat C): 0.48 ± 0.97 min⁻¹
2TCM k3 (Thalamus, control rat C): 0.76 ± 3.17 min⁻¹
2TCM k4 (Thalamus, control rat C): 0.23 ± 3.61 min⁻¹
1TCM K1 (Thalamus, control rat D): 0.64 ± 0.03 mL/g/min
1TCM k2 (Thalamus, control rat D): 0.11 ± 0.01 min⁻¹
2TCM K1 (Thalamus, control rat D): 3.13 ± 3.18 mL/g/min
2TCM k2 (Thalamus, control rat D): 12.3 ± 18.9 min⁻¹
2TCM k3 (Thalamus, control rat D): 2.61 ± 0.96 min⁻¹
2TCM k4 (Thalamus, control rat D): 0.11 ± 0.02 min⁻¹
1TCM BPND (Thalamus, raclopride): 0.33±0.04
1TCM BPND change relative to control (Thalamus, raclopride): -12%
2TCM BPND (VT-based) (Thalamus, raclopride): 0.30 ± 0.01
2TCM BPND change relative to control (Thalamus, raclopride): −10%
Logan BPND (Thalamus, raclopride): 0.28±0.005
Logan BPND change relative to control (Thalamus, raclopride): -10%
SRTM BPND (Thalamus, raclopride): 0.26 ± 0.02
SRTM BPND change relative to control (Thalamus, raclopride): −7%
2TCM BPND (VT-based) [3]: 0.30±0.01
2TCM BPND change relative to control [3]: -10%
SRTM BPND [3]: 0.26±0.02
SRTM BPND change relative to control [3]: –7%
part of cerebellar VT potentially displaceable (D2/3R specific binding) (modified Lassen plot): 11–26%
part of striatal VT potentially displaceable (D2/3R specific binding) (modified Lassen plot): 41–55%
Striatal BPND relative to cerebellum (range depending on the estimation method): 0.51–0.63
